In ChEMBL document CHEMBL5550090, “Synthesis and biological evaluation of 1H-pyrrolo[3,2-g]isoquinolines” (Bioorg Med Chem, 2024):
pEC50, pIC50: −log10 of the molar value.

What was measured:
[1] = target: T1, CDK9/cyclin T1 (Homo sapiens) (UniProt O60563+P50750); test: Inhibition of human recombinant CDK9/cyclin T expressed in baculovirus-infected Sf9 cells assessed as enzyme residual activity using YSPTSPSYSPTSPSYSPTSPSKKKK as substrate at 1 uM incubated for 30 mins in presence of ATP by ADP-Glo kinase assay
[2] = target: Glycogen synthase kinase-3 beta (Homo sapiens) (UniProt P49841); test: Inhibition of human recombinant GSK-3 beta expressed in baculovirus-infected Sf9 cells assessed as enzyme residual activity using YRRAAVPPSPSLSRHSSPHQSpEDEEE as substrate at 10 uM incubated for 30 mins in presence of ATP by ADP-Glo kinase assay
[3] = target: T2, Serine/threonine-protein kinase pim-1 (Homo sapiens, UniProt P11309); test: Inhibition of human recombinant PIM-1 expressed in bacteria assessed as enzyme residual activity using histone H1 as substrate at 1 uM incubated for 30 mins in presence of ATP by ADP-Glo kinase assay
Target sequence in this assay (P11309 whole entry, looked up, the tested form may be a part): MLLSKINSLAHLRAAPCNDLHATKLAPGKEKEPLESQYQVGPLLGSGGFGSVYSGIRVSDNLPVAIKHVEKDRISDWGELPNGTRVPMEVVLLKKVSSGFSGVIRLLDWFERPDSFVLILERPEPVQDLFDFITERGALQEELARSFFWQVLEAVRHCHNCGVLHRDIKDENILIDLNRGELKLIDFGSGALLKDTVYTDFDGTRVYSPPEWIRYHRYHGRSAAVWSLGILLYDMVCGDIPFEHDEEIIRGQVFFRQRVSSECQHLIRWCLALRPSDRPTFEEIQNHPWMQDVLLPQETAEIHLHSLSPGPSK

[4] = target: Dual specificity tyrosine-phosphorylation-regulated kinase 1A (Rattus norvegicus) (UniProt Q63470); test: Inhibition of recombinant rat DYRK1A kinase domain (1 to 499 residues) expressed in bacteria assessed as enzyme residual activity using KKISGRLSPIMTEQ as substrate at 1 uM incubated for 30 mins in presence of ATP by ADP-Glo kinase assay
[5] = target: Dual specificity protein kinase CLK1 (Mus musculus) (UniProt P22518); test: Inhibition of recombinant mouse CLK1 expressed in bacteria assessed as enzyme residual activity using GRSRSRSRSRSR as substrate at 10 uM incubated for 30 mins in presence of ATP by ADP-Glo kinase assay
[6] = species on record: Homo sapiens; test: Selectivity index, ratio of IC50 for human recombinant CDK9/cyclin T expressed in baculovirus-infected Sf9 cells to IC50 for recombinant human Haspin kinase domain (470 to 798 residues) expressed in bacteria
[7] = target: Glycogen synthase kinase-3 beta (Homo sapiens) (UniProt P49841); test: Inhibition of human recombinant GSK-3 beta expressed in baculovirus-infected Sf9 cells assessed as enzyme residual activity using YRRAAVPPSPSLSRHSSPHQSpEDEEE as substrate at 1 uM incubated for 30 mins in presence of ATP by ADP-Glo kinase assay
[8] = target: T2, Serine/threonine-protein kinase pim-1; test: Inhibition of human recombinant PIM-1 expressed in bacteria assessed as enzyme residual activity using histone H1 as substrate at 10 uM incubated for 30 mins in presence of ATP by ADP-Glo kinase assay
Target sequence in this assay (P11309 whole entry, looked up, the tested form may be a part): as the sequence (P11309 whole entry, looked up, the tested form may be a part) above

[9] = target: T3, Serine/threonine-protein kinase haspin (Homo sapiens, UniProt Q8TF76); test: Inhibition of recombinant human Haspin kinase domain (470 to 798 residues) expressed in bacteria using histone H3 (1 to 21) peptide as substrate incubated for 30 mins in presence of ATP by ADP-Glo kinase assay
T3 sequence (Q8TF76 whole entry): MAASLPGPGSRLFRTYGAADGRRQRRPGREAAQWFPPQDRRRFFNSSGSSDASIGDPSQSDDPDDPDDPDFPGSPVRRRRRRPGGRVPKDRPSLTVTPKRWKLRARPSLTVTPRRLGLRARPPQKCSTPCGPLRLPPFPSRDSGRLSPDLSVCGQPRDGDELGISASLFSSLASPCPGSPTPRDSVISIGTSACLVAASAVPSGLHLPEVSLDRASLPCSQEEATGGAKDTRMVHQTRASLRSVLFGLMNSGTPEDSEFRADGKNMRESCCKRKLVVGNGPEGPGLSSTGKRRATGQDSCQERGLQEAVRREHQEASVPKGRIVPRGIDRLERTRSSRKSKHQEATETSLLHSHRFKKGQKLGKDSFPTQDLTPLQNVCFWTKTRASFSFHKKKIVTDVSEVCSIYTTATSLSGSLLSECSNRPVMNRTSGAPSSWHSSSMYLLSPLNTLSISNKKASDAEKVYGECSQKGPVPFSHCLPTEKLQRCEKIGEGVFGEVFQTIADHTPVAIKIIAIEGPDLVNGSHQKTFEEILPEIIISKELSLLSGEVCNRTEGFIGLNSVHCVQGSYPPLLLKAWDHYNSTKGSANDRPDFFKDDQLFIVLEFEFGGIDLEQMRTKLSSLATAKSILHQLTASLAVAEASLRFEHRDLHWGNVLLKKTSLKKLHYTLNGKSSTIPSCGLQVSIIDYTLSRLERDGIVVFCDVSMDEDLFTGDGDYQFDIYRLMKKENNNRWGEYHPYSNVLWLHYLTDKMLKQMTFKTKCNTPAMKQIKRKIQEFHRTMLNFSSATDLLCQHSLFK

[10] = target: Casein kinase I isoform epsilon (Homo sapiens) (UniProt P49674); test: Inhibition of human recombinant CK1 epsilon expressed in baculovirus-infected Sf9 cells assessed as enzyme residual activity using RRKHAAIGSpAYSITA as substrate at 10 uM incubated for 30 mins in presence of ATP by ADP-Glo kinase assay
[11] = target: T4, Cyclin-dependent kinase 5/CDK5 activator 1 (Homo sapiens) (UniProt Q00535+Q15078); test: Inhibition of human recombinant CDK5/p25 expressed in bacteria assessed as enzyme residual activity using histone H1 as substrate at 1 uM incubated for 30 mins in presence of ATP by ADP-Glo kinase assay
[12] = target: T1, CDK9/cyclin T1 (Homo sapiens); test: Inhibition of human recombinant CDK9/cyclin T expressed in baculovirus-infected Sf9 cells assessed as enzyme residual activity using YSPTSPSYSPTSPSYSPTSPSKKKK as substrate at 10 uM incubated for 30 mins in presence of ATP by ADP-Glo kinase assay
[13] = target: Casein kinase I isoform epsilon (Homo sapiens) (UniProt P49674); test: Inhibition of human recombinant CK1 epsilon expressed in baculovirus-infected Sf9 cells assessed as enzyme residual activity using RRKHAAIGSpAYSITA as substrate at 1 uM incubated for 30 mins in presence of ATP by ADP-Glo kinase assay
[14] = target: T4, Cyclin-dependent kinase 5/CDK5 activator 1 (Homo sapiens); test: Inhibition of human recombinant CDK5/p25 expressed in bacteria assessed as enzyme residual activity using histone H1 as substrate at 10 uM incubated for 30 mins in presence of ATP by ADP-Glo kinase assay
[15] = target: Dual specificity protein kinase CLK1 (Mus musculus, UniProt P22518); test: Inhibition of recombinant mouse CLK1 expressed in bacteria using GRSRSRSRSRSR as substrate incubated for 30 mins in presence of ATP by ADP-Glo kinase assay
[16] = target: Dual specificity tyrosine-phosphorylation-regulated kinase 1A (Rattus norvegicus) (UniProt Q63470); test: Inhibition of recombinant rat DYRK1A kinase domain (1 to 499 residues) expressed in bacteria assessed as enzyme residual activity using KKISGRLSPIMTEQ as substrate at 10 uM incubated for 30 mins in presence of ATP by ADP-Glo kinase assay
[17] = target: Dual specificity tyrosine-phosphorylation-regulated kinase 1A (Rattus norvegicus, UniProt Q63470); test: Inhibition of recombinant rat DYRK1A kinase domain (1 to 499 residues) expressed in bacteria using KKISGRLSPIMTEQ as substrate incubated for 30 mins in presence of ATP by ADP-Glo kinase assay
[18] = target: Dual specificity protein kinase CLK1 (Mus musculus) (UniProt P22518); test: Inhibition of recombinant mouse CLK1 expressed in bacteria assessed as enzyme residual activity using GRSRSRSRSRSR as substrate at 1 uM incubated for 30 mins in presence of ATP by ADP-Glo kinase assay
[19] = target: CDK9/cyclin T1 (Homo sapiens, UniProt P50750); test: Inhibition of human recombinant CDK9/cyclin T expressed in baculovirus-infected Sf9 cells using YSPTSPSYSPTSPSYSPTSPSKKKK as substrate incubated for 30 mins in presence of ATP by ADP-Glo kinase assay
[20] = system: U2OS; test: cells; conditions: Homo sapiens, 48 h
Description: Antiproliferative activity against human U2OS cells assessed as reduction in cell viability incubated for 48 hrs by MTS assay

[21] = system: TERT-RPE1; test: cells; conditions: Homo sapiens, RPE-1, 48 h
Description: Cytotoxicity against human TERT-RPE1 cells assessed as reduction in cell viability incubated for 48 hrs by MTS assay

[22] = system: HCT-116; test: cells; conditions: Homo sapiens, HCT-116, 48 h
Description: Antiproliferative activity against human HCT-116 cells assessed as reduction in cell viability incubated for 48 hrs by MTS assay

[23] = system: HBL-100; test: cells; conditions: Homo sapiens, HBL-100, 48 h
Description: Antiproliferative activity against human HBL-100 cells assessed as reduction in cell viability incubated for 48 hrs by MTS assay

[24] = system: SH-SY5Y; test: cells; conditions: Homo sapiens, 48 h
Description: Antiproliferative activity against human SH-SY5Y cells assessed as reduction in cell viability incubated for 48 hrs by MTS assay

[25] = target: T2, Serine/threonine-protein kinase pim-1; test: Inhibition of human recombinant PIM-1 expressed in bacteria using histone H1 as substrate incubated for 30 mins in presence of ATP by ADP-Glo kinase assay
Target sequence in this assay (P11309 whole entry, the tested form may be a part): as the sequence (P11309 whole entry, looked up, the tested form may be a part) above

[26] = Selectivity index, ratio of IC50 for recombinant mouse CLK1 expressed in bacteria to IC50 for recombinant human Haspin kinase domain (470 to 798 residues) expressed in bacteria

Chain of Glycogen synthase kinase-3 beta (Homo sapiens) (P49841 whole entry, looked up): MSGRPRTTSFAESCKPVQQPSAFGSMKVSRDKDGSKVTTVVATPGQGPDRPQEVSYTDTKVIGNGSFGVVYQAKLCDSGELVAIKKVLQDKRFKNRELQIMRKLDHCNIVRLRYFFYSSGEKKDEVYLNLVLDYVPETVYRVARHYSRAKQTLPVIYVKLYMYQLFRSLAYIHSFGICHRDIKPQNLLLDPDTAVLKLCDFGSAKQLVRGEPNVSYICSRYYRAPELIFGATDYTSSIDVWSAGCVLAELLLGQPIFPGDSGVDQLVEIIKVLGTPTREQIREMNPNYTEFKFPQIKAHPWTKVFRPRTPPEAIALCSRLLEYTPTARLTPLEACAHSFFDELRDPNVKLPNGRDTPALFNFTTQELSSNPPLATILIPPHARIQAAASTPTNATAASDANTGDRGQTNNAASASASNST
T4 sequence (Q00535 whole entry): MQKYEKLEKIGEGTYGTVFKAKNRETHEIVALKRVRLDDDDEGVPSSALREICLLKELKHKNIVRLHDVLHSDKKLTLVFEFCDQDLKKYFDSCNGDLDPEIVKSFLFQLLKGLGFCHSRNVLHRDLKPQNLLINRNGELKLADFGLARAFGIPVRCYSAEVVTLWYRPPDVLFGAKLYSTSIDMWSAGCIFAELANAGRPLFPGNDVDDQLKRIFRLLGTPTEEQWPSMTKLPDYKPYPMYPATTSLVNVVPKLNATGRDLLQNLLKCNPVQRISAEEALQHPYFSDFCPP
T4 sequence (Q15078 99-307 partner limits assumed): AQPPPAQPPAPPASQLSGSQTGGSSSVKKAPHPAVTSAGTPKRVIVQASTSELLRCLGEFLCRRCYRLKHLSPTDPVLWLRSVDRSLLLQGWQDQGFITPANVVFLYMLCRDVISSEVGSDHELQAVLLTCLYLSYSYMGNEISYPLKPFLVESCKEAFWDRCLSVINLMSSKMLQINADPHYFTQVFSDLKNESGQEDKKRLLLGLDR
Chain of Dual specificity protein kinase CLK1 (P22518 whole entry, the tested form may be a part): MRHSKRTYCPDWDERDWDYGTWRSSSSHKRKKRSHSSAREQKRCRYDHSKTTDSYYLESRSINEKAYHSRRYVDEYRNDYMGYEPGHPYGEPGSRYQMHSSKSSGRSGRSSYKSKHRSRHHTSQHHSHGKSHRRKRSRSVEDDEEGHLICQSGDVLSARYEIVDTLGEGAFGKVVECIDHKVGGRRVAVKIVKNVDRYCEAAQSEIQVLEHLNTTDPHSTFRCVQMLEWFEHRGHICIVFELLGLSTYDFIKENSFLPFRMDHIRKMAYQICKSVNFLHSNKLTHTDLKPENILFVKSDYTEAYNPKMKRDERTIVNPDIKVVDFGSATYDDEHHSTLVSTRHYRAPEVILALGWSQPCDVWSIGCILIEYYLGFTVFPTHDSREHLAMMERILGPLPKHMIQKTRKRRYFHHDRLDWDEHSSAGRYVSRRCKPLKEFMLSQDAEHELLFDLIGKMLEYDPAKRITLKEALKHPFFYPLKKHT
Chain of Dual specificity protein kinase CLK1 (Mus musculus) (P22518 whole entry, looked up, the tested form may be a part): as the sequence (P22518 whole entry, the tested form may be a part) above
Chain of CDK9/cyclin T1 (O60563 whole entry): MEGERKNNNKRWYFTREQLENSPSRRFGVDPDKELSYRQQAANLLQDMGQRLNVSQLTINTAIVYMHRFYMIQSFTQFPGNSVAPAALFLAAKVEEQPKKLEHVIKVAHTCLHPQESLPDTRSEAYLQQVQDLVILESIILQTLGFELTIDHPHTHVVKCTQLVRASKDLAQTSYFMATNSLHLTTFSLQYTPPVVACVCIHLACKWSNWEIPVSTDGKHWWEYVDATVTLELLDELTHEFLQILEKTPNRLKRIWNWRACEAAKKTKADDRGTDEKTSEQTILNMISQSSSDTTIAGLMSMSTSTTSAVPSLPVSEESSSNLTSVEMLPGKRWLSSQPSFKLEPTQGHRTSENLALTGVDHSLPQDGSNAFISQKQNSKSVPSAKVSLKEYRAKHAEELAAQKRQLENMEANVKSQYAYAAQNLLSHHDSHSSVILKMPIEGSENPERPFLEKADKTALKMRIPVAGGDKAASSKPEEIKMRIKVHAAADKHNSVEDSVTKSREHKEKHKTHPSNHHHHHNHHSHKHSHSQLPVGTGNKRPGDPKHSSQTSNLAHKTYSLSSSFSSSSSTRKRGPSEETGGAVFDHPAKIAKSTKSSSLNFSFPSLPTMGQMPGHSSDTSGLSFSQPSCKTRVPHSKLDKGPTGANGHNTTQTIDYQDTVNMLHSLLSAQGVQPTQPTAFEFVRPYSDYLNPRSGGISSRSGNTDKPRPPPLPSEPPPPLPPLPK
Chain of CDK9/cyclin T1 (P50750 whole entry): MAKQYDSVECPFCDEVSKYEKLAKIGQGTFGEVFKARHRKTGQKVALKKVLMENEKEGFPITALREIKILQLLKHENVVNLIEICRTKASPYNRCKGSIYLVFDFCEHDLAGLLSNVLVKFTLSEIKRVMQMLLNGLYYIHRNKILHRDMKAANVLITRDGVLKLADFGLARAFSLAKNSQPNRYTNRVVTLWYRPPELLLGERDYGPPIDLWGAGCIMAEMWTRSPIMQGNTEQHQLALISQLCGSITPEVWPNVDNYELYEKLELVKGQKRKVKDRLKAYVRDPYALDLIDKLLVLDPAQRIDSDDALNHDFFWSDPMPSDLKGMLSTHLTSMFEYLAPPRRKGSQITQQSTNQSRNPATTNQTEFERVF
Chain of Casein kinase I isoform epsilon (Homo sapiens) (P49674 whole entry, looked up, canonical isoform): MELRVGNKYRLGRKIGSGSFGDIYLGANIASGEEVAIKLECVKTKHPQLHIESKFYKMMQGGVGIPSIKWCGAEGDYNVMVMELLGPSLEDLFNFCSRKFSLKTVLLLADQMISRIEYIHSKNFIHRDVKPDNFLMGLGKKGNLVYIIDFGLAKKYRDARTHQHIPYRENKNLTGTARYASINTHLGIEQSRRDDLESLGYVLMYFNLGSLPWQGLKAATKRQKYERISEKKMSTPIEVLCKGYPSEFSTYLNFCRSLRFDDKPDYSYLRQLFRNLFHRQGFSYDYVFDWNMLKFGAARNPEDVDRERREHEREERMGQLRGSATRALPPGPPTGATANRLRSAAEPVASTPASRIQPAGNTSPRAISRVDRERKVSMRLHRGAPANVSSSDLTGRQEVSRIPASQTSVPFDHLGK

N#Cc1c[nH]c2cc3cnccc3cc12
Activity [1]: 34% | Activity [2]: 26% | Activity [3]: 100% | Activity [4]: 38% | Activity [5]: 0% | Ratio IC50 [6]: 2.4 | Activity [7]: 59% | Activity [8]: 95% | pIC50 [9]: 7.12 | Activity [10]: 47% | Activity [11]: 69% | Activity [12]: 6% | Activity [13]: 92% | Activity [14]: 34% | pIC50 [15]: 6.44 | Activity [16]: 5% | pIC50 [17]: 6.74 | Activity [18]: 19% | pIC50 [19]: 6.75

O=Cc1c[nH]c2cc3cnccc3cc12
Activity [1]: 7% | Activity [2]: 23% | Activity [3]: 64% | Activity [4]: 21% | Activity [5]: 26% | Ratio IC50 [6]: 0.96 | Activity [7]: 55% | Activity [8]: 33% | pIC50 [9]: 6.80 | Activity [10]: 34% | Activity [11]: 84% | Activity [12]: 7% | Activity [13]: 80% | Activity [14]: 57% | pIC50 [15]: 6.74 | Activity [16]: 7% | pIC50 [17]: 6.31 | Activity [18]: 53% | pIC50 [19]: 6.82

Ic1c[nH]c2cc3cnccc3cc12
pEC50 [20]: < 4.30 | Activity [1]: 62% | Activity [2]: 74% | pEC50 [21]: < 4.30 | pEC50 [22]: < 4.30 | Activity [3]: 50% | Activity [4]: 50% | Activity [5]: 27% | Activity [7]: 77% | Activity [8]: 23% | pIC50 [9]: 6.94 | pEC50 [23]: < 4.30 | Activity [10]: 27% | Activity [12]: 35% | Activity [13]: 69% | Activity [14]: 100% | Activity [16]: 16% | pIC50 [17]: 6.25 | Activity [18]: 69% | pEC50 [24]: < 4.30 | pIC50 [25]: 6.17

ON=Cc1c[nH]c2cc3cnccc3cc12
Activity [1]: 13% | Activity [2]: 27% | Activity [3]: 43% | Activity [4]: 9% | Activity [7]: 80% | Activity [8]: 11% | pIC50 [9]: 6.89 | Activity [10]: 46% | Activity [11]: 51% | Activity [12]: 2% | Activity [13]: 89% | Activity [14]: 32% | pIC50 [15]: 6.86 | Activity [16]: 1% | pIC50 [17]: 6.54 | Ratio IC50 [26]: 1.1 | Activity [18]: 15% | pIC50 [19]: 6.65

CC(=O)c1c[nH]c2cc3cnccc3cc12
Activity [1]: 34% | Activity [2]: 27% | Activity [3]: 80% | Activity [4]: 25% | Activity [5]: 10% | Activity [7]: 69% | Activity [8]: 27% | pIC50 [9]: 6.80 | Activity [10]: 62% | Activity [11]: 31% | Activity [12]: 20% | Activity [13]: 98% | Activity [14]: 13% | pIC50 [15]: 6.58 | Activity [16]: 0% | pIC50 [17]: 6.07 | Ratio IC50 [26]: 1.7 | Activity [18]: 21%

Nc1nccc(-c2c[nH]c3cc4cnccc4cc23)n1
Activity [1]: 56% | Activity [2]: 35% | Activity [3]: 20% | Activity [4]: 25% | Activity [5]: 5% | Activity [7]: 76% | Activity [8]: 4% | pIC50 [9]: 6.91 | Activity [10]: 10% | Activity [11]: 79% | Activity [12]: 16% | Activity [13]: 46% | Activity [14]: 21% | pIC50 [15]: 6.69 | Activity [16]: 0% | pIC50 [17]: 6.25 | Ratio IC50 [26]: 1.7 | Activity [18]: 16% | pIC50 [25]: 6.65

Brc1c[nH]c2cc3cnccc3cc12
pEC50 [20]: < 4.30 | Activity [1]: 39% | Activity [2]: 62% | pEC50 [21]: < 4.30 | pEC50 [22]: < 4.30 | Activity [3]: 48% | Activity [4]: 36% | Activity [5]: 32% | Activity [7]: 89% | Activity [8]: 24% | pIC50 [9]: 6.82 | pEC50 [23]: < 4.30 | Activity [10]: 77% | Activity [11]: 100% | Activity [12]: 27% | Activity [13]: 100% | Activity [14]: 48% | Activity [16]: 11% | pIC50 [17]: 6.04 | Activity [18]: 72% | pIC50 [19]: 6.00 | pEC50 [24]: < 4.30 | pIC50 [25]: 6.09
